{
  "source": "patent US8969298B2",
  "about": "“Liquid preparation of physiologically active peptide” (Daiichi Sankyo Co., Ltd., priority 2004, dated 2015)",
  "key": {"[1]": {"test": "Pharmacokinetics of human ghrelin preparations intravenously, subcutaneously or intramuscularly administered to rats (plasma ghrelin by RIA)", "format": "in vivo", "conditions": "s.c.", "method": "7-week old, male SD rats (Charles River Laboratories Japan Inc.) were used. A group of three rats was used for the tests. For intravenous administration, these animals each inserted a polyethylene tube (PE-50, Clay Adams Co., Ltd.) in the femoral artery were used. Preparation No. 2 was administered through the tail vain at a dose of 0.5 mL/kg by using a syringe and a 26 G needle (each available from Terumo Co., Ltd.). Blood samples were collected from the polyethylene tube in the femoral artery before administration and 1, 3, 5, 10, 20, 30, 60, and 90 minutes after administration.\nSimilarly, these animals inserted a polyethylene tube in the femoral artery were used for subcutaneous administration of Preparation No. 3 in the dorsal skin at a dose of 1 mL/kg using a syringe and a 26 G needle. Blood samples were collected from the polyethylene tube in the femoral artery before administration and 5, 10, 20, and 30 minutes after administration.\nTo each sample, one-hundredth as much of an EDTA.2Na.2H2O solution and one-fiftieth as much of an AEBSF solution were added immediately after collection of the sample. […]\nThe plasma samples were then analyzed for the ghrelin levels by radioimmunoassay (RIA) using an anti-ghrelin antibody. […] The supernatant was separated and analyzed for radioactivity by a γ-counter (Packard Instruments Co., Ltd.).\nThe results shown in FIG. 1 were used to determine the following pharmacokinetic parameters for each injection route: the maximum plasma ghrelin concentration (Cmax) and the time it took before the maximum plasma concentration was reached (T). […] Using the trapezoidal method, the area under the concentration curve (AUC) was also calculated for each injection route. […]\nAs with the examples of subcutaneous administration, these rats, inserted a polyethylene tube in the femoral artery, were intramuscularly administered Preparations No. 3 and No. 13 in the femoral muscle at a dose of 1 mL/kg, using a syringe and a 26 G needle. The blood samples were collected in the same manner as in Comparative Example 2 and the plasma ghrelin levels were measured by RIA method."}, "[2]": {"test": "Pharmacokinetics of ghrelin preparations intravenously or subcutaneously administered to cynomolgus monkeys (plasma ghrelin by ELISA)", "conditions": "cynomolgus monkey, in vivo, sc, read-out: BA of subcutaneously injected ghrelin", "method": "Preparations No. 5 and No. 33 were subcutaneously administered to separate groups of cynomolgus monkeys and the plasma ghrelin levels were measured. Furthermore, Preparation No. 1 was intravenously administered to another group of cynomolgus monkeys. The plasma ghrelin levels were measured.\nEach group consisted of three male monkeys (imported from China) aged 4 to 6 years. Preparations No. 5 and No. 33 were subcutaneously injected in the dorsal skin at a dose of 0.2 mL/body using a syringe and a 26 G needle (each available from Terumo Co., Ltd.).\nUsing a syringe and a 26 G needle (each available from Terumo Co., Ltd.), Preparation No. 1 was intravenously injected in the forearm vena cephalica at a dose of 2 mL/kg.\nIn each case, blood samples were collected from the forearm vena cephalica before administration and 5, 10, 15, 30, 40, 60, 90, and 120 minutes after administration. […]\nThe plasma samples were then analyzed for the ghrelin levels by Enzyme-Linked Immunosolvent Assay (ELISA) using Active Ghrelin ELISA Kit (Cat. No. MM-401, Mitsubishi Kagaku latron Inc.). […]\nThe results shown in FIG. 7 were used to determine Cmax and Tmax for each liquid preparation. Using the trapezoidal method, the AUC was also calculated for each preparation. […]"}},
  "data": [
    {"smiles": "CCCCCCCC(=O)OC[C@H](NC(=O)[C@H](CO)NC(=O)CN)C(=O)N[C@@H](Cc1ccccc1)C(=O)N[C@@H](CC(C)C)C(=O)N[C@@H](CO)C(=O)N1CCC[C@H]1C(=O)N[C@@H](CCC(=O)O)C(=O)N[C@@H](Cc1cnc[nH]1)C(=O)N[C@@H](CCC(N)=O)C(=O)N[C@@H](CCCNC(=N)N)C(=O)N[C@H](C(=O)N[C@@H](CCC(N)=O)C(=O)N[C@@H](CCC(N)=O)C(=O)N[C@@H](CCCNC(=N)N)C(=O)N[C@@H](CCCCN)C(=O)N[C@@H](CCC(=O)O)C(=O)N[C@@H](CO)C(=O)N[C@@H](CCCCN)C(=O)N[C@@H](CCCCN)C(=O)N1CCC[C@H]1C(=O)N1CCC[C@H]1C(=O)N[C@@H](C)C(=O)N[C@@H](CCCCN)C(=O)N[C@@H](CC(C)C)C(=O)N[C@@H](CCC(N)=O)C(=O)N1CCC[C@H]1C(=O)N[C@@H](CCCNC(=N)N)C(=O)O)C(C)C", "note": "[ghrelin]", "values": [
      {"measurement": "BA of subcutaneously injected ghrelin", "setting": "[1]", "result": "at most 5%"},
      {"measurement": "BA of ghrelin", "setting": "[1]; mixed with sodium acetate buffer (pH 4.0)", "result": 35.3, "unit": "%"},
      {"measurement": "BA of ghrelin", "setting": "[1]; mixed with urea as a solubilizing agent", "result": 3.4, "unit": "%"},
      {"measurement": "bioavailability", "setting": "[2]", "result": "≤ 3", "unit": "%"}
    ]}
  ]
}
